Reference: patent US20090182035A1, “USE OF A COMBINATION OF OLOPATADINE AND CILOMILAST TO TREAT NON-INFECTIOUS RHINITIS AND ALLERGIC CONJUNCTIVITIS” (Alcon Research, Ltd., priority 2007, published 2009)

How the values were obtained:
[1] = test system: eosinophil peroxidase (EPO) activity; assay: Passive conjunctival anaphylaxis, eosinophil peroxidase (EPO) activity in conjunctivae (allergic inflammation); assay type: in vivo, guinea pig; settings: 0.1% topical 20 μL drop 60 min prior to and 8 hours after challenge; for EPO Activity % Inhibition: conjunctivae 24 hours after challenge, versus vehicle only, * P < 0.05; for EPO Activity Mean: conjunctivae collected 24 hours after challenge
Method: (§1) Drugs were prepared in standard ophthalmic suspension vehicle and allowed to vortex overnight. Cilomilast and olopatadine were prepared in the same drop by preparing separate 0.2% formulations and then combining them 50:50 to yield a 0.1% concentration of each drug. In groups where cilomilast and olopatadine were given in consecutive drops, olopatadine was applied first followed 5 minutes later by cilomilast. All topical drops were administered as a single 20 μL application. Guinea pigs (male Hartley outbred, 250-300 g) were divided into groups of six. Animals were passively sensitized to ovalbumin by a single subconjunctival injection to the right eye of 10 μL of undiluted anti-ovalbumin guinea pig serum (antiserum). One group was injected with saline only. Twenty-four hours after sensitization all groups were topically challenged with 0.5 mg of ovalbumin in saline to the right eye. Animals were pre-treated with drug or vehicle 60 minutes prior to challenge. Thirty minutes after topical challenge each animal was scored by a masked observer for clinical signs of conjunctivitis, redness/congestion, swelling, and tearing/discharge, with a total score of 0 to 10. Animals were dosed a second time with drug or vehicle 8 hours after challenge. Animals were euthanized 24 hours after challenge and conjunctivae were collected and assayed for eosinophil peroxidase (EPO) activity, an indirect marker of tissue eosinophil concentration. Briefly, tissue samples were weighed frozen, then mechanically homogenized in 50 mM HEPES buffer, pH 6.5, containing 0.5% cetyltrimethylammonium chloride and 6 mM KBr. Homogenates were freeze-thawed three times and sonicated.

[2] = test system: Guinea Pig Model of Passive Conjunctival Anaphylaxis; assay: Passive conjunctival anaphylaxis, acute phase clinical score of conjunctivitis; assay type: in vivo; settings: 0.1% topical 20 μL drop 60 min prior to ovalbumin challenge, scored 30 min after challenge; for Clinical Score Mean: total score 0 to 10, groups of six; for Clinical Score % Inhibition: versus vehicle only, * P < 0.05
Method: as §1

Row | SMILES | EPO Activity % Inhibition [1] | EPO Activity Mean [1] [ng EPO/mg tisue] | Clinical Score Mean [2] | Clinical Score % Inhibition [2]
1 | CN(C)CC/C=C1/c2ccccc2COc2ccc(CC(=O)O)cc21 [Olopatadine] | 15.8% | 1320.23 | 2.2 | 67.5* %
2 | COc1ccc([C@]2(C#N)CC[C@@H](C(=O)O)CC2)cc1OC1CCCC1 [Cilomilast] | 62.8* % | 582.26 | 4.2 | 37.5%
